Results: patent US8969373B2, “HCV protease inhibitors” (Shanghai Tangrun Pharmaceuticals Co., Ltd., priority 2011, dated 2015)
Read-outs that look alike come from different tables or passages of the source.

Key:
[1] = Pharmacokinetic evaluation in SD rats after oral administration; format: in vivo, Sprague-Dawley (SD) rats; conditions: oral gavage, 10 mg/kg; for bioavailability: read-out: F (absolute bioavailability)
Method: Pharmacokinetic Evaluation of the Compounds of this Invention
Twenty healthy male Sprague-Dawley (SD) rats with body weight of 200-220 g were divided into 5 groups randomly and each group contains 4 rats. Before the experiment, rats were fasted for 12 h with free access to water. The compound Ik (wherein k=2, 5, 18, 34 or 38) of this invention was administered by oral gavage at a dose level of 10 mg/kg. The compounds were prepared with 0.5% CMC-Na containing 1% Tween 80. The dose volume was 10 mL/kg. The rats were afforded unlimited access to food after 2 h of dosing 0.3 mL of blood samples were collected at 0.25 h, 0.5 h, 1.0 h, 2.0 h, 3.0 h, 5.0 h, 7.0 h, 9.0 h, and 24.0 h, respectively, from postocular venous plexes of the rat. The blood samples were placed in heparin-containing tubes and immediately centrifuged at 11000 rpm for 5 min. Plasma was separated and refrigerated at −20° C. until analysis. LC-MS/MS methods were used to quantify plasma concentrations of the compound Ik.

[2] = test system: HCV replicon (pSGR-399LM) in Huh7 cells; assay: Inhibitory activity in the HCV replicon system (Renilla luciferase); format: cell-based; conditions: Hepatitis C virus, Huh-7, pSGR-399LM replicon Huh7 cells, 72 hr
Method: The Inhibitory Activity of Compounds in the HCV Replicon System
HCV replicon cell-line: The Huh7 cells were transfected with pSGR-399LM replicon DNA and cultured in the DMEM containing 10% FBS and 0.5 mg/mL G418. The cells were split at 1:3 to 1:5 every 3-4 days. The transfected cells were seeded in 96-well plates and cultured at 37° C., 5% CO2 for 24 hr.
Treatment with samples: To the HCV replicon Huh7 cells-line were added different concentration of the samples (i.e. compound Ik, wherein k=1, 2, 3 . . . 42), the each concentration for duplicate, and set no sample control wells. The concentration started at 400 nM, with quarter dilution to form five different concentrations of samples, that is 400 nM, 100 nM, 25 nM, 6.25 nM and 1.56 nM. The samples were added separately, and continued to incubated for 72 hr.
Fluorescence detection: After 72 hr treatment with sample, the cells were lysed and added with Renilla luciferase substrate to detect luminescent signal. The relative luminescent unit (RLU) in the luminometer was read out and used to calculate the inhibition rate of HCV.

[3] = test system: HCV (J399EM virus) in Huh7.5.1 cells; assay: Inhibition of HCV replication in HCV infected human hepatocellular carcinoma cells (Huh7.5.1), HCV-EGFP fluorescence; format: cell-based; conditions: Hepatitis C virus, Huh-7.5.1, 72 h, read-out: HCV infected human hepatocellular carcinoma cells in vitro EC50(nM)
Method: In Vitro Inhibitory Activity of Compounds in HCV Replication in HCV Infected Human Hepatocellular Carcinoma Cells (Huh7.5.1)
The preparation of Huh7.5.1cells: Huh 7.5.1 cells were seeded at a 96-well plate with 37 and 5% CO2 for 24 hours incubation.
Virus infection: Using the J399EM virus supernatants (moi≈0.1) to infect Huh7.5.1cells. At the same time, the no virus infected cell will be set up as the control. After 8 hours virus infection, the virus will be washed out with PBS.
Drug treatment: The different doses of samples (i.e. the compound Ik, wherein k=1, 2, 3, . . . 42) were added in J399EM infected Huh7.5.1 cells, the each dose for duplicate. At the same time the no sample added in wells will be set up as the control. The test dose of sample is starting from 25 nM or 400 nM, with quarter dilution, 5 doses of sample will be added in the test wells, respectively, then continued for 72 hours incubation.
HCV-EGFP fluorescence detection: After samples treatment for 72 hours, the autofluorescence of HCV-EGFP were measured by the luminometer with excitation of 488 nm, and emission of 516 nm. The related fluorescence unit (RFU) of samples will be read out and used for calculating the inhibitory rates of compounds in HCV replication.

[4] = male, Sprague-Dawley, rat, plasma
[5] = male, Sprague-Dawley, rat, plasma, po, read-out: Cmax
[6] = male, Sprague-Dawley, rat, plasma, po

Structure (SMILES) | AUC(0-inf) [1, 4] [µg·h/mL] | AUC(0-t) [1, 4] [µg·h/mL] | Tmax [1, 4] [min] | half-life [1, 4] [min] | Cmax [1, 5] [µg/mL] | bioavailability [1, 6] [%] | EC50 [2] [µM] | EC50 [3] [nM] | Cmax ([1]; listed as I18, 10 mg/kg) [µg/mL]
COc1ccc2oc3c4ccccc4c(O[C@@H]4C[C@H]5C(=O)N[C@]6(C(=O)NS(=O)(=O)C7CC7)C[C@H]6/C=C\CCCCC[C@H](NC(=O)OC(C)(C)C)C(=O)N5C4)nc3c2c1 [Compound 2, tert-butyl(2R,6S,13aS,14aR,16aS,Z)-14a-(cyclopropylsulfonylcarbamoyl)-2-(8-methoxybenzofuro[3,2-c]isoquinolin-5-yloxy)-5,16-dioxo-1,2,3,5,6,7,8,9,10,11,13a,14,14a,15,16,16a-hexadecahydrocyclopropa[e]pyrrolo[1,2-a][1,4]diazacyclopentadecin-6-yl carbamate] | 1.78 ± 0.0537 | 0.158 ± 0.0498 | 24 ± 6 | 186 ± 78 | 0.0497 ± 0.011 | 1.8 | < 0.1 | < 100 | 
CC(C)(C)OC(=O)N[C@H]1CCCCC/C=C\[C@@H]2C[C@@]2(C(=O)NS(=O)(=O)C2CC2)NC(=O)[C@@H]2C[C@@H](Oc3nc4c5cc(Cl)ccc5oc4c4ccccc34)CN2C1=O [Compound 5] | 3.03 ± 1.71 | 2.88 ± 1.72 | 75 ± 30 | 209 ± 65.4 | 0.56 ± 0.139 | 17.1 | < 0.1 | < 100 | 
COc1ccc2c(c1)c(O[C@@H]1C[C@H]3C(=O)N[C@]4(C(=O)NS(=O)(=O)C5CC5)C[C@H]4/C=C\CCCCC[C@H](NC(=O)OC(C)(C)C)C(=O)N3C1)nc1c3ccccc3oc21 [Compound 18] | 3.27 ± 0.303 | 3.22 ± 0.336 | 102 ± 36 | 228 ± 60 | 0.623 ± 0.0607 | ~36.1 | < 0.1 | < 100 | 0.6233 ± 0.0607
C=C[C@@H]1C[C@]1(NC(=O)[C@@H]1C[C@@H](Oc2nc3c4cc(OC)ccc4oc3c3ccc(Cl)cc23)CN1C(=O)[C@@H](NC(=O)OC(C)(C)C)C(C)(C)C)C(=O)NS(=O)(=O)C1CC1 [Compound 32] |  |  |  |  |  |  | < 0.1 | 100 to 1000 | 
C=C[C@@H]1C[C@]1(NC(=O)[C@@H]1C[C@@H](Oc2nc3c4cc(Cl)ccc4oc3c3ccc(Cl)cc23)CN1C(=O)[C@@H](NC(=O)OC(C)(C)C)C(C)(C)C)C(=O)NS(=O)(=O)C1CC1 [Compound 33] |  |  |  |  |  |  | 0.1 to 1 | 100 to 1000 | 
C=C[C@@H]1C[C@]1(NC(=O)[C@@H]1C[C@@H](Oc2cc(-c3csc(NC(=O)C(C)C)n3)nc3c2oc2ccc(OC)c(Cl)c23)CN1C(=O)[C@@H](NC(=O)OC(C)(C)C)C(C)(C)C)C(=O)NS(=O)(=O)C1CC1 [Compound 34] | 0.011 ± 0.0011 | 0.0096 ± 0.0009 | 24 ± 12 | 30 ± 18 | 0.0114 ± 0.0043 | 1.6 | < 0.1 | < 100 | 
C=C[C@@H]1C[C@]1(NC(=O)[C@@H]1C[C@@H](Oc2cc(-c3csc(NC(=O)C(C)C)n3)nc3c2oc2ccc(OC)c(Br)c23)CN1C(=O)[C@@H](NC(=O)OC(C)(C)C)C(C)(C)C)C(=O)NS(=O)(=O)C1CC1 [Compound 35] |  |  |  |  |  |  | < 0.1 | < 100 | 
O=C1N[C@]2(C(=O)NS(=O)(=O)C3CC3)C[C@H]2/C=C\CCCCC[C@H](CC(=O)N2CCCCC2)C(=O)N2C[C@H](Oc3cc(-c4ccccc4)nc4c3oc3ccccc34)C[C@@H]12 [Compound 36] |  |  |  |  |  |  | < 0.1 | 100 to 1000 | 
C=C[C@@H]1C[C@]1(NC(=O)[C@@H]1C[C@@H](Oc2cc(-c3ccccc3)nc3c2oc2ccccc23)CN1C(=O)[C@@H](CC(=O)N1CCCCC1)C(C)(C)C)C(=O)NS(=O)(=O)C1CC1 [Compound 37] |  |  |  |  |  |  | 0.1 to 1 | 100 to 1000 | 
C=C[C@@H]1C[C@]1(NC(=O)[C@@H]1C[C@@H](Oc2cc(-c3ccccc3)nc3c2oc2ccccc23)CN1C(=O)[C@@H](NC(=O)OC(C)(C)C)C(C)(C)C)C(=O)NS(=O)(=O)C1CC1 [Compound 38] | 0.243 ± 0.081 | 0.239 ± 0.081 | 37.8 ± 15 | 43.2 ± 18 | 0.15 ± 0.042 | 8.7 | < 0.1 | < 100 | 
C=C[C@@H]1C[C@]1(NC(=O)[C@@H]1C[C@@H](Oc2cc(-c3cnc(C(C)(C)O)s3)nc3c2oc2ccc(OC)c(Cl)c23)CN1C(=O)[C@@H](NC(=O)OC(C)(C)C)C(C)(C)C)C(=O)NS(=O)(=O)C1CC1 [Compound 39] |  |  |  |  |  |  | < 0.1 | < 100 | 
C=C[C@@H]1C[C@]1(NC(=O)[C@@H]1C[C@@H](Oc2cc(-c3cnc(C(C)(C)O)s3)nc3c2oc2ccc(OC)c(Br)c23)CN1C(=O)[C@@H](NC(=O)OC(C)(C)C)C(C)(C)C)C(=O)NS(=O)(=O)C1CC1 [Compound 40] |  |  |  |  |  |  | < 0.1 | < 100 | 
